What was measured:
Collagenase 3 [1] = biological target: T1, Collagenase 3 (Homo sapiens, UniProt P45452)
[2] = biological target: T2, Disintegrin and metalloproteinase domain-containing protein 17 (Homo sapiens, UniProt P78536); assay: In vitro inhibition of TNF-alpha converting enzyme (TACE)
Interstitial collagenase = biological target: T3, Interstitial collagenase (Homo sapiens, UniProt P03956); assay: In vitro inhibition of Matrix metalloprotease-1
T3 sequence (P03956 whole entry): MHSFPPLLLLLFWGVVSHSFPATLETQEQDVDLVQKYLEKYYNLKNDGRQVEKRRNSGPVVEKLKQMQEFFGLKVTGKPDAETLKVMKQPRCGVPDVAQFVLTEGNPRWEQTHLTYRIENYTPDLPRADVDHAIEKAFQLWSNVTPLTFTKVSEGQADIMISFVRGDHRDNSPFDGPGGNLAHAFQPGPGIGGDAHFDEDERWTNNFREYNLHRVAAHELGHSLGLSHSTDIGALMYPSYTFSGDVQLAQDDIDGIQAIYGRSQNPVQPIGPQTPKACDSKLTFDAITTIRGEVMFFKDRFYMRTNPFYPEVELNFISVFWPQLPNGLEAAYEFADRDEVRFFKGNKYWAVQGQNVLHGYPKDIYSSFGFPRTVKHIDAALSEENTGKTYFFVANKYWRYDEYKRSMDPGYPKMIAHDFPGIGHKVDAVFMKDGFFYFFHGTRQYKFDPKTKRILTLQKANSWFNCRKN

[3] = biological target: T4, Matrix metalloproteinase-9 (Homo sapiens, UniProt P14780); assay: In vitro ability to inhibit matrix metalloprotease-9.
Bos taurus = organism: Bos taurus; assay: Percent inhibition of cartilage degradation at 1 uM in a bovine articular cartilage explant assay; assay type: functional; settings: Cartilage tissue
[4] = biological target: T4, Matrix metalloproteinase-9; assay: Inhibition of Matrix metalloprotease-9 at 1 uM
[5] = biological target: T2, Disintegrin and metalloproteinase domain-containing protein 17; assay: Inhibition of TNF-alpha converting enzyme (TACE) at 1 uM
[6] = biological target: T5, Interstitial collagenase (Homo sapiens) (UniProt P03956); assay: Inhibition of Matrix metalloprotease-1 at 10 uM
T5 sequence (whole entry): T3 sequence (P03956 whole entry)

Rattus norvegicus = assay: Percent inhibition of collagen degradation at an oral dose of 50 mg/kg/bid in an in vivo rat sponge-wrapped cartilage model; assay type: functional
[7] = biological target: T5, Interstitial collagenase (Homo sapiens); assay: Inhibition of Matrix metalloprotease-1 at 1 uM
Collagenase 3 [8] = biological target: T1, Collagenase 3; assay: Inhibition of matrix metalloprotease-13; settings: concentration not given here

T4 sequence (P14780 whole entry): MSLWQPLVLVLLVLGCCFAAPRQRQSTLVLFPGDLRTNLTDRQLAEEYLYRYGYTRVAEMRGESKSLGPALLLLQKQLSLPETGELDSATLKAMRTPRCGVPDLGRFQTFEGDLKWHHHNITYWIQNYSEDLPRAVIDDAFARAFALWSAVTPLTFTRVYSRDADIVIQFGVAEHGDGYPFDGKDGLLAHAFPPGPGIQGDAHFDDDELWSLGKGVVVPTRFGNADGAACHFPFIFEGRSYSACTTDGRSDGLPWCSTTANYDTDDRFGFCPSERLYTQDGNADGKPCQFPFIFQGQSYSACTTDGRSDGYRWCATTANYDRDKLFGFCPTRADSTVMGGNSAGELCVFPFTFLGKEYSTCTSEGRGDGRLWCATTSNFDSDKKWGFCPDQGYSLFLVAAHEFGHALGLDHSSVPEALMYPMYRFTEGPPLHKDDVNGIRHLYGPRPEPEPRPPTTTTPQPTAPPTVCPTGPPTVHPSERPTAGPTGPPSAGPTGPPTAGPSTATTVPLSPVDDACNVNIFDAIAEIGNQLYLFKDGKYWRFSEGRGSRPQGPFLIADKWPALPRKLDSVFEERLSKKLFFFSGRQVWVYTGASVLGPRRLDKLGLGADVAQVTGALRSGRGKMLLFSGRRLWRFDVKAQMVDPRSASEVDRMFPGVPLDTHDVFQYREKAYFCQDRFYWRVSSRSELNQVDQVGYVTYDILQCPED
T2 sequence (P78536 whole entry, the tested form may be a part): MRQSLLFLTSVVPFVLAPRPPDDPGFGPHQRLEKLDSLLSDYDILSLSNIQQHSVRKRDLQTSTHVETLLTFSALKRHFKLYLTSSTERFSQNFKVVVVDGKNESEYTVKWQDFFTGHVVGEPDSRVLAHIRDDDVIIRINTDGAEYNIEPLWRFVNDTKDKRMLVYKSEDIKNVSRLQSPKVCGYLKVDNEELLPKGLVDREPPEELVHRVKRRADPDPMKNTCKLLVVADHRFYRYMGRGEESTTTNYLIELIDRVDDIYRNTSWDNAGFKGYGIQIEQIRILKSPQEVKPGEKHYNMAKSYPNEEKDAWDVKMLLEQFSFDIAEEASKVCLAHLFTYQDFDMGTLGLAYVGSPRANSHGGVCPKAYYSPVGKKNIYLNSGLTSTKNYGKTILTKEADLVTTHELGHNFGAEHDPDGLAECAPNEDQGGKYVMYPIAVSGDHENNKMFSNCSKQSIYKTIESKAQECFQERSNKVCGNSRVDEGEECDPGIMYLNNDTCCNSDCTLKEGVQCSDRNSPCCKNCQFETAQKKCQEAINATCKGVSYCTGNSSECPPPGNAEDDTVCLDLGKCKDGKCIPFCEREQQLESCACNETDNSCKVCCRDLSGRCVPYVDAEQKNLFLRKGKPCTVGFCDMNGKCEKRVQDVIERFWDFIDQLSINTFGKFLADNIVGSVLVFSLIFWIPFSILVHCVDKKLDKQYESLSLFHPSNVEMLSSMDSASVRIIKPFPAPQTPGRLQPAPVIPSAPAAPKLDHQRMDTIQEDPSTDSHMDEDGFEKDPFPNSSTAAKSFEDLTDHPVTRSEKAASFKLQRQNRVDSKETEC

| Compound | IC50 [2] [nM] | IC50 [3] [nM] | IC50 (Collagenase 3 [1]) [nM] | IC50 (Interstitial collagenase) [nM] | further results |
| --- | --- | --- | --- | --- | --- |
| COc1ccc(S(=O)(=O)N(Cc2cccnc2)c2c(C)cc(-c3ccc4ccccc4c3)cc2C(=O)NO)cc1 | 194 | 2 | 1 | 745 | inhibition at 1 µM (Bos taurus): 83% |
| Cc1cccc(C(=O)NO)c1N(Cc1cccnc1)S(=O)(=O)c1ccc(-c2ccc3c(c2)OCO3)cc1 | – | – | – | – | inhibition [4]: 43%; inhibition [5]: 9%; inhibition [6]: 37% |
| COc1ccc(S(=O)(=O)N(Cc2cccnc2)c2c(C)cc(-c3ccccc3)cc2C(=O)NO)cc1 | – | – | 4 | – | inhibition at 1 µM (Bos taurus): 70% |
| COc1ccc(S(=O)(=O)N(Cc2cccnc2)c2c(C(=O)NO)cc(C)cc2-c2ccccc2)cc1 | 133 | 7 | 3 | 103 | – |
| Cc1cc(Br)cc(C(=O)NO)c1N(Cc1ccccc1)S(=O)(=O)c1ccc(OCc2ccccc2)cc1 | 285 | 3450 | – | – | inhibition [6]: 18% |
| Cc1cc(C)c(N(C)S(=O)(=O)c2ccc(Sc3ccccc3)cc2)c(C(=O)NO)c1 | 727 | 8 | 3 | 1310 | – |
| Cc1cc(C)c(N(Cc2ccccc2)S(=O)(=O)c2ccc(OCc3ccccc3)cc2)c(C(=O)NO)c1 | – | – | – | – | inhibition [7]: 25% |
| Cc1cc(Br)cc(C(=O)NO)c1N(C)S(=O)(=O)c1ccc(Oc2ccc(C(C)(C)C)cc2)cc1 | – | 125 | 44 | – | inhibition [7]: 25%; inhibition [5]: 19% |
| Cc1cc(C)c(N(Cc2ccccc2)S(=O)(=O)c2ccc(Oc3ccccc3)cc2)c(C(=O)NO)c1 | – | 4 | 6 | 376 | inhibition [5]: 37% |
| CCN(CC)Cc1cc(C)c(N(Cc2ccccc2)S(=O)(=O)c2ccc(OC)cc2)c(C(=O)NO)c1 | – | – | – | – | inhibition [5]: 44% |
| Cc1cc(Br)cc(C(=O)NO)c1N(C)S(=O)(=O)c1ccc(-c2ccc(OCc3ccsc3)cc2)cc1 | 56 | 232 | 142 | 4640 | – |
| Cc1cc(Br)cc(C(=O)NO)c1N(C)S(=O)(=O)c1ccc(-c2ccc(OCc3nccs3)cc2)cc1 | 23 | 952 | 661 | – | inhibition [6]: 45% |
| Cc1cc(Br)cc(C(=O)NO)c1N(C)S(=O)(=O)c1ccc(-c2ccc(OCc3ccccc3)cc2)cc1 | 57 | 189 | 163 | – | inhibition [6]: 57% |
| COc1ccc(-c2ccc(S(=O)(=O)N(Cc3cccnc3)c3c(C)cccc3C(=O)NO)cc2)cc1 | – | 152 | 18 | 2270 | inhibition [5]: 4% |
| Cc1cc(Br)cc(C(=O)NO)c1N(C)S(=O)(=O)c1ccc(-c2ccc(OCc3cccnc3)cc2)cc1 | 28 | – | – | – | inhibition (Collagenase 3 [8]): 48%; inhibition [4]: 28%; inhibition [6]: 42% |
| CCCCOc1ccc(S(=O)(=O)N(Cc2ccccc2)c2c(C)cc(C)cc2C(=O)NO)cc1 | – | – | – | – | inhibition [7]: 33% |

More lines, main results first:

| IC50 [2] [nM] | IC50 [3] [nM] | Compound | IC50 (Collagenase 3 [1]) [nM] | IC50 (Interstitial collagenase) [nM] | further results |
| --- | --- | --- | --- | --- | --- |
| 231 | – | COc1ccc(S(=O)(=O)N(Cc2cccnc2)c2c(C)cccc2C(=O)NO)cc1 | – | – | – |
| 633 | 2 | COc1ccc(S(=O)(=O)N(Cc2cccnc2)c2c(C)cc(N(C)C)cc2C(=O)NO)cc1 | 39 | 74 | – |
| 70 | – | COc1ccc(S(=O)(=O)N(Cc2cccnc2)c2c(C)cc(C)cc2C(=O)NO)cc1 | – | – | – |
| 43 | – | COc1ccc(S(=O)(=O)N(Cc2cccnc2)c2c(C)cc(Br)cc2C(=O)NO)cc1 | – | 124 | – |
| 231 | – | COc1ccc(S(=O)(=O)N(Cc2cccnc2)[C@@H](C(=O)NO)C(C)C)cc1 [CGS-27023A] | – | – | inhibition in vivo at 50 mg/kg (Rattus norvegicus): 51%; inhibition at 1 µM (Bos taurus): 70% |
| – | 153 | CN(c1ccccc1C(=O)NO)S(=O)(=O)c1ccc(Oc2ccncc2)cc1 | 38 | – | inhibition [7]: 48%; inhibition [5]: 22% |
| – | 7 | Cc1cccc(C(=O)NO)c1N(C)S(=O)(=O)c1ccc(Oc2ccncc2)cc1 | – | – | inhibition in vivo at 50 mg/kg (Rattus norvegicus): 35%; inhibition at 1 µM (Bos taurus): 83%; inhibition [5]: 32% |
| – | 1 | COc1ccc(S(=O)(=O)N(Cc2cccnc2)c2c(C)cc(-c3cccc(C(F)(F)F)c3)cc2C(=O)NO)cc1 | – | – | – |
| – | 8 | COc1ccc(S(=O)(=O)N(Cc2cccnc2)c2c(C(=O)NO)cc(C)cc2-c2ccco2)cc1 | 1 | 18 | – |
